From patent US8809368B2, “Compounds affecting gap junction activity” (Kansas State University Research Foundation, priority 2006, dated 2014) come the findings set out here.

Entries after “also recorded” stand apart in the source; their conditions may differ.

In data set [1] the test system is T47D cells. The experiment in a line: MTT assay, cell proliferation and viability, T47D cells. It is filed as cell-based, human. The settings on record: 200 nM, 24 hours. How it is done: (§1) T47D breast cancer cells were treated with various concentrations of PQ1 for 24 hours. MTT assay was performed with adherent cell cultures using a culture medium free of phenol red and of serum. Solution containing MTT was metabolized by the cells (incubation period 3 hours). After solubilization of the MTT crystals with the solubilization solution MTT, the amount of dye was measured spectrophotometrically at 540 nm.
(§2) MTT assay: This assay is done to measure cell proliferation and viability. Yellow MTT (3-(4,5-Dimethylthiazol-2-yl)-2,5-diphenyltetrazolium bromide, a tetrazole) is reduced to purple crystals, formazan in the mitochondria of living cells. A solubilization solution is added to dissolve the insoluble purple formazan product into a colored solution. The absorbance of this colored solution can be measured by a spectrophotometer. T47 D cells (20,000) were grown in 96-well plate and dosed with 10, 100, 200, 500 nM of PQ1 compound in 100 μl of complete media for 24 hours. MTT (20 μl) was added to the cells and purple formazan crystals were observed after 90 minutes. A solubilization solution (0.35 N HCl) was added to dissolve the formazan and the absorbance was measured at 595 nm wavelength with a background wavelength 690 nm by a spectrophotometer.
(§3) The cytotoxicity of PQ1 in MEC and T47D cells using MTT assay was also determined. Cells were treated with 10, 100, 200, and 500 nM PQ1 for 24 hours. MTT assay was performed according to the manufacture's recommendations. A 200 nM PQ1 has 67% cell viability compared to controls (FIG. 16). Treatments of 100 and 200 nM PQ1 have 95% and 103% MEC cell viability compared to control. However, both MEC and T47D cells decrease cell viability to 50% and 65% at 1 μM PQ1, respectively. Thus, 100-200 nM of PQ1 is sufficient to enhance GJIC activity.
(§4) MTT assay. […] After solubilization of the MTT crystals with the solubilization solution MTT, the amount of dye will be measured spectrophotometrically at 540 nm.
Background: Formazan colour is commonly taken as a measure of viable cells.

Assay in data set [2]: as above
It is filed as cell-based, human. The settings on record: human, T47D breast cancer cells. How it is done: as §1, §2, §3, §4

For data set [3], the system named is Cx43. Description: Western blot of Cx43 and phosphoCx43-Ser368 in R28 cells. It is filed as cell-based, rat. The conditions noted are these: PQ1, CoCl2 or a combination of both. How it is done:
(§5) (A) About 70% confluent retinal R28 cells were treated with 100, 200 and 500 μM CoCl2 for 24 h with or without the pre-treatment of PQ1 (10 μM, 40 min) in a cell culture chamber (5% CO2, room air, 37° C.). Caspase-3 activation was determined by Western blotting in whole cell homogenates (WCH). (B) HIF1α stabilization was measured in the nuclear extracts (NE) after treatment with 500 μM CoCl2 at different time intervals with or without the pretreatment of PQ1. […] Levels of Cx43 and phosphoCx43-Ser368 are measured in WCH. β-Actin is used as a loading control.
Western blot. Western blotting was performed as described previously. Anti-Cx43 was purchased from Fred Hutchinson cancer research center (# Cx43NT1), anti-HIF1a was purchased from Novus Biologicals (# NB100-105), and anti-caspase-3 (# 9661), phosphor-Cx43 (Ser368) (#3511S) were purchased from Cell Signaling Technology and anti-b-actin was purchased from Sigma (# A5441).
Next, it was determined whether PQ1 inhibition of gap junctions could prevent retinal neurosensory R28 cells from apoptosis using a chemical (CoCl2)-induced ischemia system as our model. […] CoCl2 at 500 μM caused stabilization of HIF1a in the nuclear extracts and this stabilization started as early as three hours after treatment (FIG. 20B). This confirmed induction of hypoxia. […]
In general terms: In western blotting, separated proteins are transferred to a membrane and probed.

In data set [4] the test system is HIF1α. The experiment in a line: CoCl2 chemical hypoxia in R28 cells, HIF1α stabilization in nuclear extracts. The data set is classed as cell-based, rat. The conditions noted are these: PQ1 alone, up to 24 h. How it is done:
as §5
Approximately 70% confluent retinal R28 cells were pre-incubated with PQ1 (10 μM, 40 min), followed by CoCl2 treatments at 100, 200 and 500 μM for different time periods in a cell culture chamber (5% CO2, room air, 37° C.). Hypoxia induction was confirmed by testing the hypoxia-inducible factor 1-α (HIF1α) protein expression levels in nuclear extracts by Western blotting.
Nuclear extracts. […] The eluted nuclear proteins in the supernatant were collected and HIF1a protein levels were measured by Western blotting. […]

Data set [5] relates to T47D cells. The experiment in a line: Electron microscopy of PQ1-treated cells. It is filed as cell-based, human. The settings on record: PQ1 treatment.
For data set [6], the system named is T47D cells. The experiment in a line: Cell morphology, T47D cells. The data set is classed as cell-based, human. The settings on record: varying concentrations, 24 hours. How it is done: Cell Morphology: T47D cells (1000 cells/ml) were seeded in a six-well plate for 24 hours. Next day, cells were dosed with varying concentrations of PQ1 for 24 hours. Cells were observed under a microscope before and after the experiment. No effect seen on the morphology of cells in the presence of PQ1.

With `COc1cc(NCCCN)c2nccc(C)c2c1Oc1cccc(C(F)(F)F)c1.O=C(O)CCC(=O)O` [PQ1, 6-Methoxy-8-[(3-aminopropyl)amino]-4-methyl-5-(3-trifluoromethylphenyloxy) quinoline succinic acid], the “decrease in cell proliferation” value in data set [1] was 40%. In data set [2] (200 nM, 24 hours, read-out: cell viability compared to controls), the viability (as a rule, a read-out of living cells in per cent, often relative to untreated cells) at 24 h, 0.2 µM stood at 67%. This compound registered a viability at 24 h, 1 µM in data set [2] (1 μM) of 65%. In data set [3], the “Cx43 gap junction protein levels” value is recorded as “did not cause any change” and the “phosphorylation of Cx43 at residue ser368” value is “did not cause any change”. For the same compound, the HIF1α stabilization entry in data set [4] is “did not cause activation or stabilization; also recorded: did not have any effect”. For the same compound, the “mitochondria by electron microscopy” value in data set [5] was “Mitochondrial damage”. For the same compound, in data set [6], the cell morphology entry is “No effect”.
